From PubChem BioAssay AID1845203 (Molecular Pharmacology Branch, DTP, NCI, 2023)
“And” between values parts separate entries of the source, which are not always exact repeats. Identical values can stand only once.

Test system: G-401 tumor spheroids, viability % test/control
Test: Anticancer human tumor G-401 cell line growth inhibition;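 further: spheroids exposed to compound for 7 days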;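 on viability, T/C: 100% = DMSO vehicle-treated spheroids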
Conditions: spheroids with HUVEC and MSC; for viability, T/C: stronger effect = lower value
How it was run: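 Complex spheroids of malignant cells with endothelial cells and mesenchymal stem cells; agents alone or combined, from near clinical Cmax (or 10 microM if unknown) down in half-log steps, 0.25% DMSO final.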

[1] = curve of first compound, second compound 0.003 µM

SMILES: Cc1sc2c(c1C)C(c1ccc(Cl)cc1)=NC(CC(=O)Nc1ccc(O)cc1)c1nnc(C)n1-2 (configuration not stated) + COc1cc2c(cc1O)CCNC21CSC2c3c(OC(C)=O)c(C)c4c(c3C(COC1=O)N1C(O)C3Cc5cc(C)c(OC)c(O)c5C(C21)N3C)OCO4
- IC50 (curve of first compound, second compound 30 pM): 160 nM
- IC50 (curve of first compound, second compound 94.9 pM): 115 nM
- IC50 (curve of first compound, second compound 0.0003 µM): < 9.49 nM
- IC50 (curve of first compound, second compound 0.000949 µM): < 9.49 nM
- IC50 [1]: < 9.49 nM
- viability, T/C (second compound 30 pM, first compound 0.00949 µM): 102%
- viability, T/C (second compound 30 pM, first compound 0.03 µM): 83.3%
- viability, T/C (second compound 30 pM, first compound 0.0949 µM): 63.9%
- viability, T/C (second compound 30 pM, first compound 0.3 µM): 34.8%
- viability, T/C (second compound 30 pM, first compound 0.949 µM): 17.8%
- viability, T/C (second compound 30 pM, first compound 3 µM): 8.07%
- viability, T/C (second compound 94.9 pM, first compound 0.00949 µM): 92.8%
- viability, T/C (second compound 94.9 pM, first compound 0.03 µM): 74.7%
- viability, T/C (second compound 94.9 pM, first compound 0.0949 µM): 55.1%
- viability, T/C (second compound 94.9 pM, first compound 0.3 µM): 31.3%
- viability, T/C (second compound 94.9 pM, first compound 0.949 µM): 12%
- viability, T/C (second compound 94.9 pM, first compound 3 µM): 5.01%
- viability, T/C (second compound 0.0003 µM, first compound 0.00949 µM): 35.1%
- viability, T/C (second compound 0.0003 µM, first compound 0.03 µM): 38.7%
- viability, T/C (second compound 0.0003 µM, first compound 0.0949 µM): 27.1%
- viability, T/C (second compound 0.0003 µM, first compound 0.3 µM): 9.01%
- viability, T/C (second compound 0.0003 µM, first compound 0.949 µM): 4.45%
- viability, T/C (second compound 0.0003 µM, first compound 3 µM): 1.34%
- viability, T/C (second compound 0.000949 µM, first compound 0.00949 µM): 19.8%
- viability, T/C (second compound 0.000949 µM, first compound 0.03 µM): 3.94%
- viability, T/C (second compound 0.000949 µM, first compound 0.0949 µM): 19.1%
- viability, T/C (second compound 0.000949 µM, first compound 0.3 µM): 1.51%
- viability, T/C (second compound 0.000949 µM, first compound 0.949 µM): 0.15%
- viability, T/C (second compound 0.000949 µM, first compound 3 µM): 0.16%
- viability, T/C (second compound 0.003 µM, first compound 0.00949 µM): 0.08%
- viability, T/C (second compound 0.003 µM, first compound 0.03 µM): 0.07%
- viability, T/C (second compound 0.003 µM, first compound 0.0949 µM): 0.12%
- viability, T/C (second compound 0.003 µM, first compound 0.3 µM): 0.13%
- viability, T/C (second compound 0.003 µM, first compound 0.949 µM): 0.12%
- viability, T/C (second compound 0.003 µM, first compound 3 µM): 0.24%

SMILES: CC(C)n1c(=O)n(C)c2cnc3cc(F)c(-c4ccc(OCCCN5CCCCC5)nc4)cc3c21 + CC[C@@]1(O)C(=O)OCc2c1cc1n(c2=O)Cc2cc3c(CN(C)C)c(O)ccc3nc2-1
- IC50 [1]: < 31.6 nM
- IC50 (curve of first compound, second compound 0.00949 µM): < 31.6 nM
- IC50 (curve of first compound, second compound 0.03 µM): < 31.6 nM
- IC50 (curve of first compound, second compound 0.0949 µM): < 31.6 nM
- IC50 (curve of first compound, second compound 0.3 µM): < 31.6 nM
- viability, T/C (second compound 0.003 µM, first compound 0.0316 µM): 18.3%
- viability, T/C (second compound 0.003 µM, first compound 0.1 µM): 20.1%
- viability, T/C (second compound 0.003 µM, first compound 0.316 µM): 19.8%
- viability, T/C (second compound 0.003 µM, first compound 1 µM): 22.7%
- viability, T/C (second compound 0.003 µM, first compound 3.16 µM): 16.1%
- viability, T/C (second compound 0.003 µM, first compound 10 µM): 10.8%
- viability, T/C (second compound 0.00949 µM, first compound 0.0316 µM): 12.9%
- viability, T/C (second compound 0.00949 µM, first compound 0.1 µM): 15.5%
- viability, T/C (second compound 0.00949 µM, first compound 0.316 µM): 14.9%
- viability, T/C (second compound 0.00949 µM, first compound 1 µM): 14.6%
- viability, T/C (second compound 0.00949 µM, first compound 3.16 µM): 12.9%
- viability, T/C (second compound 0.00949 µM, first compound 10 µM): 7.82%
- viability, T/C (second compound 0.03 µM, first compound 0.0316 µM): 13.8%
- viability, T/C (second compound 0.03 µM, first compound 0.1 µM): 11.8%
- viability, T/C (second compound 0.03 µM, first compound 0.316 µM): 13.9%
- viability, T/C (second compound 0.03 µM, first compound 1 µM): 15.1%
- viability, T/C (second compound 0.03 µM, first compound 3.16 µM): 9.27%
- viability, T/C (second compound 0.03 µM, first compound 10 µM): 4.89%
- viability, T/C (second compound 0.0949 µM, first compound 0.0316 µM): 10.2%
- viability, T/C (second compound 0.0949 µM, first compound 0.1 µM): 9.71%
- viability, T/C (second compound 0.0949 µM, first compound 0.316 µM): 10.3%
- viability, T/C (second compound 0.0949 µM, first compound 1 µM): 12.7%
- viability, T/C (second compound 0.0949 µM, first compound 3.16 µM): 8.85%
- viability, T/C (second compound 0.0949 µM, first compound 10 µM): 4.85%
- viability, T/C (second compound 0.3 µM, first compound 0.0316 µM): 5.28%
- viability, T/C (second compound 0.3 µM, first compound 0.1 µM): 5.27%
- viability, T/C (second compound 0.3 µM, first compound 0.316 µM): 5.71%
- viability, T/C (second compound 0.3 µM, first compound 1 µM): 6.45%
- viability, T/C (second compound 0.3 µM, first compound 3.16 µM): 6.65%
- viability, T/C (second compound 0.3 µM, first compound 10 µM): 2.79%

SMILES: Cc1cc(C)c(CNC(=O)c2cc(-c3ccc(CN4CCOCC4)cc3)cc3c2cnn3C2CCCC2)c(=O)[nH]1
- viability, T/C (compound 0.0316 µM): 106% and 105% and 95.6%
- viability, T/C (compound 0.1 µM): 111% and 102% and 98.5%
- viability, T/C (compound 0.316 µM): 108% and 107% and 106%
- viability, T/C (compound 1 µM): 113% and 97.5% and 91.4%
- viability, T/C (compound 3.16 µM): 98.1% and 91.5% and 77.8%
- viability, T/C (compound 10 µM): 44.2% and 44.8% and 57.8%
- IC50 (curve of compound): 8840 nM and 8810 nM and > 10000 nM
